Assay results: patent publication US10940201B2, “Nucleic acid derivative having immunostimulatory activity” (Shionogi & Co., Ltd., priority 2015, dated 2021)
In the oligonucleotide strings, read from the 5' end, every base follows the letter of its sugar. An asterisk marks phosphorothioate; unmarked linkages are phosphodiester. Other units and linkages are bracketed, terminal groups are in braces. A string of capitals states the bases alone. d = 2'-deoxy (DNA)

Tests used:
B16F10 cells = test: Anti-tumor effect of TRP2 peptide vaccine using an adjuvant; assay type: in vivo, mouse
Method: After immunization by TRP2 peptide vaccine, B16F10 cells (ATTC) which is mouse melanoma expressing TRP2 protein was subcutaneously transplanted to evaluate anti-tumor effect. […] The major and minor axes of the engrafted tumor were measured every 2 to 3 days, and the tumor volume was calculated by the formula: (major axis×minor axis^2)/2 Calculation method for indicators of anti-tumor effect For the adjuvant comprising ODN1826 100·(average tumor volume of adjuvant group)/(average tumor volume of ODN1826 group) For the adjuvant comprising ODN2006 100·(average tumor volume of adjuvant group)/(average tumor volume of ODN2006 group)

tumor growth = test: Anti-tumor effect (tumor inhibition rate) of OVA peptide vaccine with adjuvant; assay type: in vivo, mouse; conditions: Table 32, 1.57 nmol/head, compared to ODN1826 (SEQ-1)
Method: After immunization by TRP2 peptide vaccine, B16F10 cells (ATTC) which is mouse melanoma expressing TRP2 protein was subcutaneously transplanted to evaluate anti-tumor effect. In a similar method to Example 3 A), on the next day that tetramer-positive ratio in peripheral blood of mouse vaccinated twice every 7 days was observed, B16F10 cells (1×10^5 cells/mouse) were subcutaneously transplanted in the right shoulder. The major and minor axes of the engrafted tumor were measured every 2 to 3 days, and the tumor volume was calculated by the formula: (major axis×minor axis^2)/2 Calculation method for indicators of anti-tumor effect For the adjuvant comprising ODN1826 100·(average tumor volume of adjuvant group)/(average tumor volume of ODN1826 group) For the adjuvant comprising ODN2006 100·(average tumor volume of adjuvant group)/(average tumor volume of ODN2006 group)
The compound with bigger value has the stronger anti-tumor activity.
The activity of an adjuvant of the present invention having a lipid comprising two acyl chains comprising 10 to 20 carbon atoms as a ligand was examined with OVA peptide.

[1] = test system: antigen-specific CTL (OVA peptide); test: CTL inducibility of OVA peptide vaccine with adjuvant (tetramer staining); assay type: in vivo, C57BL/6JJcl mice; conditions: Table 32, 1.57 nmol/head, ODN1826 (SEQ-1) group = 1
Method: (§1) C57BL/6JJcl mice (6 to 8 weeks old) were purchased from CLEA Japan, Inc.
(§2) an adjuvant of the present invention or the well-known CpG ODN
The specific immunity was induced by vaccinating a mouse twice at 7 days intervals. […] 100 μL of the vaccine was administered subcutaneous injection on the flank of a mouse.
On 7 days after second vaccination, the blood was collected, red blood cells was removed by BD Pharm Lyse (BD pharmingen), and the white blood cells were suspended in FACS buffer (1% fetal bovine serum, 2 mM PBS with EDTA). Anti-mouse CD16/32 monoclonal antibody (BioXcell) was added thereto, and Fc receptor blocking was carried out at 4° C. for 30 minutes. […] Then, staining was carried out with DAPI (Invitrogen) and the cells were washed twice with FACS buffer. It was resuspended in FACS buffer and analyzed by FACS verse Flow Cytometer (BD bioscience) and FAC Suite software (BD bioscience). For analysis, after DAPI negative fraction was gated, white blood cells fraction were provided using forward and side-way scattering as indicators. In the white blood cells fraction, both positive cells of Alexa 647-CD8 and PE-H-2Kb Tetramer were defined as CTLs. […]
After calculation of the average CTL inducibility of each group per experiment, the ratio against average value of CTL inducibility of ssCpG ODN, ODN1826 (SEQ-1) or ODN2006 (SEQ-49) as a control was calculated. […]

TRP2-specific CTL [2] = test: CTL inducibility of TRP2 peptide vaccine with adjuvant (tetramer staining); assay type: in vivo, C57BL/6JJcl mice
Method: as §1, §2
The specific immunity was induced by vaccinating a mouse twice at 7 days intervals. Each vaccine was that 100 μg of TRP2 peptide, and 1.57 or 4.71 nmol of an adjuvant of the present invention or well-known CpG ODN, were dissolved in 1×PBS. 100 μL of the vaccine was administered subcutaneous injection on the flank of a mouse.
100 μL of the emulsion vaccine was administered subcutaneous injection on the flank of a mouse twice at 7 days intervals.
On 7 days after second vaccination, the blood was collected, red blood cells was removed by BD Pharm Lyse (BD pharmingen), and the white blood cells were suspended in FACS buffer (1% fetal bovine serum, 2 mM PBS with EDTA). Anti-mouse CD16/32 monoclonal antibody (BioXcell) was added thereto, and Fc receptor blocking was carried out at 4° C. for 30 minutes. […] Then, staining was carried out with DAPI (Invitrogen) and the cells were washed twice with FACS buffer. It was resuspended in FACS buffer and analyzed by FACS verse Flow Cytometer (BD bioscience) and FAC Suite software (BD bioscience). For analysis, after DAPI negative fraction was gated, white blood cells fraction were provided using forward and side-way scattering as indicators. In the white blood cells fraction, both positive cells of Alexa 647-CD8 and PE-H-2Kb Tetramer were defined as CTLs. CTL ratio in white blood cells was used for evaluation.
After calculation of the average CTL inducibility of each group per experiment, the ratio against average value of CTL inducibility of ssCpG ODN, ODN1826 (SEQ-1) or ODN2006 (SEQ-49) as a control was calculated.
In the case of an adjuvant comprising ODN1826 (Average of CTL inducibility of the adjuvant group)/(Average of CTL inducibility of the ODN1826 group)=the ratio against average value In the case of an adjuvant comprising ODN2006 (Average of CTL inducibility of the adjuvant group)/(Average of CTL inducibility of the ODN2006 group)=the ratio against average value
CTL inducibility of each adjuvant was shown when CTL inducibility of ssCpG ODN was taken as 1, so the bigger value means the higher CTL inducibility.

recombinant PCRV protein = test: Inducibility of antibody production in immunization by PCRV antigen vaccine (antibody titer); assay type: in vivo; conditions: A/J mice, recombinant PCRV protein with adjuvant, intradermal; antiserum Day 33; FIG. 15
Method: Perv nucleotide sequence (SEQ ID NO: 48) derived from Pseudomonas aeruginosa Strain PAO1 was cloned at NdeI-XhoI site in pET21a vector, and Escherichia coli strain BL21 (DE3) was transformed with the prepared plasmid. Strain perV-BL21 (DE3) was cultured in 500 mL of LB/Ampicillin liquid medium at 37° C., and 200 μL of 0.1 M IPTG was added when OD600 became 0.5 to induce expression of recombinant PCRV protein. After culturing at 16° C. for 18 hours, bacteria was separated by a centrifuge, and 15 ml of Buffer A (50 mM Tris-HCl (pH8.0), 0.2M NaCl) comprising 0.5% lysozyme (SIGMA Corporation) was added. After putting at 4° C. for 30 minutes, ultrasonic treatment was carried out. After centrifugation at 12,000 rpm for 10 minutes, soluble fraction was obtained. 1 mL of Ni-NTA agarose gel (QIAGEN) was added to Polyprep column (BIO-RAD Laboratories, Inc) and equilibrated with 10 mL of Buffer A. Soluble fraction was added to the column and passed. […] The resulting recombinant PCRV protein was measured the concentration with BCA assay kit (PIERCE) and kept at −80° C. […]
Antibody titer was measured as blow. […] 20 μL/well of 0.5 N sulfuric acid (Nacalai) was added, and absorbance at 450 nm was measured with a plate reader. The dilution ratio when absorbance at 450 nm is 1.0 was calculated and put as an antibody titer.

human TLR9 = target: T1, human TLR9 (Homo sapiens, UniProt Q9NR96); test: Reporter assay with HEK-Blue hTLR9 cells (TLR9 agonist activity); assay type: cell-based; conditions: Table 30; CpG oligonucleotides except for ODN2006 and their double strands; read-out: EC50
T1 construct: host or cells: HEK-Blue hTLR9 cells (HEK293)
T1 sequence (Q9NR96 26-1032): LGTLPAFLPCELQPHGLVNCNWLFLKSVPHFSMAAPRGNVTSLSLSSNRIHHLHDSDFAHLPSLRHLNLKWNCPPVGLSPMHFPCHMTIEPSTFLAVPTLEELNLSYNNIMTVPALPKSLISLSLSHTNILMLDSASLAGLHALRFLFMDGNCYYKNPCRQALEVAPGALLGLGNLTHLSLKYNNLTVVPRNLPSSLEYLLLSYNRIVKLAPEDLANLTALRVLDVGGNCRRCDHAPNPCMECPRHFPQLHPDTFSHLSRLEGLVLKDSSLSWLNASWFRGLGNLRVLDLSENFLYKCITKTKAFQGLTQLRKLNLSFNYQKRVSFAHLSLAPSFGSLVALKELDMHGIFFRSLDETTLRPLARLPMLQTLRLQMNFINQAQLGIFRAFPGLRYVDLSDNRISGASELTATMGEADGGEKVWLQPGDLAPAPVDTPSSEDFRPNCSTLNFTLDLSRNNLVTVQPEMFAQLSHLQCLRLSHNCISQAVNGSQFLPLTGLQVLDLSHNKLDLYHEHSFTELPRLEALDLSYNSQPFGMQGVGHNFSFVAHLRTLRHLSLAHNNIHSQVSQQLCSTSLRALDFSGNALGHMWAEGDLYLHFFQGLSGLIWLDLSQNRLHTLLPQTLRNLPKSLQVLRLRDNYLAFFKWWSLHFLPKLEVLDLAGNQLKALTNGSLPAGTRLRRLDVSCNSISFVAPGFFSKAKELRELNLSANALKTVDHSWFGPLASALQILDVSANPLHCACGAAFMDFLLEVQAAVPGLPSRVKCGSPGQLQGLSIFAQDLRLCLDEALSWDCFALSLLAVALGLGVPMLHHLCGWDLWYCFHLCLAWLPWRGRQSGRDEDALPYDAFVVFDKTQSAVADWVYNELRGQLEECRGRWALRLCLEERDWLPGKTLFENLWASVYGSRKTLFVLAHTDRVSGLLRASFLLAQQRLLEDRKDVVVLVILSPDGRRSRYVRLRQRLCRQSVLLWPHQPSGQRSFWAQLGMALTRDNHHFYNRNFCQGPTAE
Method: HEK-Blue™ hTLR9 cells (Invivogen) used for the reporter assay were made by introducing human TLR9 gene and a reporter gene that secretory alkaline phosphatase gene bound to NF-kB-AP-1 binding region sequence in HEK293 cells, and are the cells stably expressing the both genes. 3.6×10^4 of the cells suspended in HEK-Blue™ Detection ([…]) comprising substrates against the alkaline phosphatase were seeded on the 96 well plate, and 3 nM to 30 μM of a lipid binding double-stranded oligonucleotide of the present invention, the known CpG oligonucleotides (ODN2006, SEQ-49), or adjuvant based on design in Patent Document 1, i.e., ssCpG ODN introducing a lipid ligand (SEQ-142, 143 or 144) was added. After culturing in a 37° C., 5% CO2 incubator for 16 hours, absorbency at 620 nm was measured using the culture supernatant developed a color. The result value was analyzed with TIBCO Spotfire software, and calculated the 50% effective concentration (EC50) of each oligonucleotide.

TRP2-specific CTL [3] = test: CTL inducibility of TRP2 peptide vaccine with adjuvant (tetramer staining); assay type: in vivo, C57BL/6JJcl mice; remark: listed apart in the source
[4] = Table 56, 4.71 nmol, SEQ-256 (D35-CpG) group = 1
[5] = Table 65, 4.71 nmol, respective ssCpG ODN (ODN2216, ODN684, D-LS01) group = 1

ODN1826 [SEQ-1]
effect of inhibition on tumor progression of B16F10 cells (in words) (B16F10 cells): little effect of inhibition on tumor progression of B16F10 cells | Tumor inhibition rate (Day 14 after transplantation) (B16F10 cells; Table 37, 1.57 nmol/head, compared to ODN1826 (SEQ-1)): 0.00% | Tumor inhibition rate (Day 14 after transplantation) (tumor growth): 0.00% | Ratio of average value of antigen-specific CTL [1]: 1.00 | Ratio of average value of antigen-specific CTL (TRP2-specific CTL [2]; Table 31, 1.57 nmol/head, ODN1826 (SEQ-1) group = 1): 1.00 | Ratio of average value of antigen-specific CTL (TRP2-specific CTL [2]; Table 33, 1.57 nmol/head, ODN1826 (SEQ-1) group = 1): 1.00 | Ratio of average value of antigen-specific CTL (TRP2-specific CTL [2]; Table 34, 1.57 nmol/head, ODN1826 (SEQ-1) group = 1): 1.00 | Ratio of average value of antigen-specific CTL (TRP2-specific CTL [2]; Table 35, 1.57 nmol/head, ODN1826 (SEQ-1) group = 1): 1.00 | Ratio of average value of antigen-specific CTL (TRP2-specific CTL [2]; Table 36, 1.57 nmol/head (Montanide 100 μL), ODN1826 (SEQ-1) group = 1): 1.00 | Ratio of average value of antigen-specific CTL (TRP2-specific CTL [2]; Table 37, 1.57 nmol/head, ODN1826 (SEQ-1) group = 1): 1.00 | CTL inducibility (in words) (TRP2-specific CTL [2]; adjuvants comprising ODN1826): TRP2-specific CTL was induced

PCRV protein: recombinant PCRV protein C-end HIS derived from Pseudomonas aeruginosa Strain PAO1, antigen given without adjuvant as control
antibody titer (dilution ratio when absorbance at 450 nm is 1.0) (recombinant PCRV protein): 1.3×10^5

SEQ-253 (sense dA*dT*dC*dG*dA*dC*dT*dC*dT*dC*dG*dA*dG*dC*dG*dT*dT*dC*dT*dC)
EC50 (human TLR9): 2.87 µM

SEQ-256 (sense dG*dGdTdGdCdAdTdCdGdAdTdGdCdAdGdGdGdG*dG*dG)
EC50 (human TLR9): 3420 µM | Ratio of average value of antigen-specific CTL (TRP2-specific CTL [3]; [4]): 1.00

SEQ-258 (sense GGTGCATCGATGCAGGGGGG; antisense CCCCCCTGCATCGATG; phosphorothioate, 5' L4-18 lipid, chemistry not fully specified)
EC50 (human TLR9): 16.3 µM | Ratio of average value of antigen-specific CTL (TRP2-specific CTL [3]; [4]): 2.46

SEQ-342 (dT*dC*dG*dA*dC*dG*dT*dT*dC*dG*dT*dC*dG*dT*dT*dC*dG*dT*dC*dG*dT*dT*dC)
EC50 (human TLR9): 2.34 µM | Ratio of average value of antigen-specific CTL (TRP2-specific CTL [3]; [5]): 1.00

SEQ-345 (dT*dC*dG*dC*dG*dA*dC*dG*dT*dT*dC*dG*dC*dC*dC*dG*dA*dC*dG*dT*dT*dC*dG*dG*dT*dA)
EC50 (human TLR9): 6.28 µM | Ratio of average value of antigen-specific CTL (TRP2-specific CTL [3]; [5]): 1.00

SEQ-351 (dT*dC*dG*dT*dC*dG*dT*dT*dT*dT*dC*dG*dG*dC*dG*dC*dG*dC*dG*dC*dC*dG)
EC50 (human TLR9): 11.6 µM

SEQ-354 (dT*dC*dG*dT*dC*dG*dT*dC*dG*dT*dT*dC*dG*dA*dA*dC*dG*dA*dC*dG*dT*dT*dG*dA*dT)
EC50 (human TLR9): 16900 µM | Ratio of average value of antigen-specific CTL (TRP2-specific CTL [2]; Table 66, 4.71 nmol, SEQ-354 (ODN M362) group = 1): 1.00
